Results as given in patent publication US20260234140A1, “PYRIDOPYRIMIDINE DERIVATIVE AND USE THEREOF” (SUNSHINE LAKE PHARMA CO., LTD., priority 2023, published 2026).

System: PD1/PD-L1 pathway
Experiment: PD1/PD-L1 Blockade Bioassay, inhibition of the PD1/PD-L1 pathway at the cellular level (luciferase reporter, PD-1 Jukat T cells co-cultured with PD-L1 aAPC/CHO-K1 cells)
Assay type: cell-based
Conditions: T-cell; for EC50: PD-1 Jukat T cells + PD-L1 aAPC/CHO-K1 cells, 6 h co-culture, ONE-Glo luciferase readout; for Emax: maximum % Activity relative to atezolizumab (set to 100%)
Procedure: Experiment 1: Detecting the Inhibitory Activity of Compounds on the PD1/PD-L1 Pathway at the Cellular Level Using the PD1/PD-L1 Blockade Bioassay Method
PD-1 Jukat T cells were revived and cultured with 1640 medium containing 100 μg/mL Hygromycin B, […] Puromycin, 10% FBS and 1% dual antibody; PD-L1 aAPC/CHO-K1 cells were revived and cultured with F12K medium containing 100 μg/mL Hygromycin B, 200 μg/mL G418, 10% FBS and 1% dual antibody.
The revived cells need to be passaged 2-3 times. When the cells enter the exponential growth phase with good growth status, the PD-L1 aAPC/CHO-K1 was digested with trypsin, and the cells were resuspended in F12K containing 5% FBS and adjusted to a density of 5×10^5 cells/mL. 20 μl/well were plated in a 384-well plate (10,000 cells/well) and incubated in an incubator overnight for 16-20 h.
a Preparation of compound stock solution: Dissolve the compound to be tested in DMSO to prepare a 20 mM stock solution.
b Compound gradient dilution: dilute the compound in 1640 medium containing 5% FBS without antibiotics or phenol red, and make 3-fold gradient dilutions to prepare 10 concentration gradients (2×).
c Adding drugs: Take out the cell culture plate, discard the supernatant, add 20 μl/well of the prepared compound, and incubate in the incubator for 1.5 h.
PD-1 Jukat T cells were collected, washed once with PBS, and resuspended in 1640 medium containing 5% FBS without antibiotics or phenol red. The density was adjusted to 1×10^6 cells/mL. 20 μl PD-1 Jukat T cells (20,000 cells/well) were added to each well and incubated in the incubator for 6 h.
ONE-Glo™ Luciferase Assay reagent was thawed to room temperature in advance and then added to a 384-well plate at 40 µl/well. Incubate in the dark for 15 minutes and read the […] signal on a plate reader.
[formula] • Among them, % Activity: % Activity • RLU: Resulting Luminescence unit • RLUvehicle: Average RLU value of negative control wells on each plate • RLUpositive: Average RLU value of positive control wells on each plate • Vehicle control: DMSO (0.1%) corresponding to the test value was used as negative control (its % Activity was 0%); • Positive control: The highest detection value at the atezolizumab administration concentration was used as the positive control (its % Activity was 100%). • (2) EC50 value calculation method: The EC50 value was obtained by the nonlinear fitting formula of Graph Pad Prism 8.0 software. The calculation formula is as follows:
Y=Bottom+(Top−Bottom)/(1+10^((Log EC50−X)×HillSlope)) • X: log of activator concentration (logarithm of compound concentration); Y: % Activity • (3) Emax definition: The maximum % Activity value corresponding to the maximum activation value of the compound relative to atezolizumab (the activation value is set to 100%).

EC50	Structure (SMILES)	Emax
98.3 nM	COc1nc(-c2cccc(-c3cccc(Nc4nc(C(F)F)nc5cc(CN6CC[C@@H](O)C6)cnc45)c3C)c2Cl)ccc1CN[C@H]1CC[C@H](C(=O)O)CC1 [Example 2, (1r,4r)-4-(((6-(2-chloro-3′-((2-(difluoromethyl)-7-(((R)-3-hydroxypyrrolidin-1-yl)methyl)pyrido[3,2-d]pyrimidin-4-yl)amino)-2′-methyl-[1,1′-biphenyl]-3-yl)-2-methoxypyridin-3-yl)methyl)amino)cyclohexane-1-carboxylic acid]	118%
90.7 nM	COc1nc(-c2cccc(-c3cccc(Nc4nc(C(F)F)nc5cc(CN6CC[C@@H](O)C6)cnc45)c3C)c2Cl)ccc1CNC12CCC(C(=O)O)(CC1)C2 [Example 9, (R)-4-(((6-(2-chloro-3′-((2-(difluoromethyl)-7-((3-hydroxypyrrolidin-1-yl)methyl)pyrido[3,2-d]pyrimidin-4-yl)amino)-2′-methyl-[1,1′-biphenyl]-3-yl)-2-methoxypyridin-3-yl)methyl)amino)bicyclo[2.2.1]heptane-1-carboxylic acid]	117%
70.7 nM	COc1nc(-c2cccc(-c3cccc(Nc4nc(C(F)F)nc5cc(CN6CC[C@@H](O)C6)cnc45)c3C)c2Cl)ccc1CN(C)CC12CCC(C(=O)O)(CC1)C2 [Example 10, (R)-4-((((6-(2-chloro-3′-((2-(difluoromethyl)-7-((3-hydroxypyrrolidin-1-yl)methyl)pyrido[3,2-d]pyrimidin-4-yl)amino)-2′-methyl-[1,1′-biphenyl]-3-yl)-2-methoxypyridin-3-yl)methyl)(methyl)amino)methyl)bicyclo[2.2.1]heptane-1-carboxylic acid]	79.3%
38.2 nM	[2H]C([2H])([2H])N(Cc1ccc(-c2cccc(-c3cccc(Nc4nc(C(F)F)nc5cc(CN6CC[C@@H](O)C6)cnc45)c3C)c2Cl)nc1OC)[C@H]1CC[C@H](C(=O)O)CC1 [Example 13, (1r,4r)-4-(((6-(2-chloro-3′-((2-(difluoromethyl)-7-(((R)-3-hydroxypyrrolidin-1-yl)methyl)pyrido[3,2-d]pyrimidin-4-yl)amino)-2′-methyl-[1,1′-biphenyl]-3-yl)-2-methoxypyridin-3-yl)methyl)(methyl-d3)amino)cyclohexane-1-carboxylic acid]	104%
31.3 nM	COc1nc(-c2cccc(-c3cccc(Nc4nc(C(F)F)nc5cc(CN6CC[C@@H](O)C6)cnc45)c3C)c2Cl)cnc1CN(C)C[C@H]1CC[C@H](C(=O)O)CC1 [Example 14, (1r,4r)-4-((((5-(2-chloro-3′-((2-(difluoromethyl)-7-(((R)-3-hydroxypyrrolidin-1-yl)methyl)pyrido[3,2-d]pyrimidin-4-yl)amino)-2′-methyl-[1,1′-biphenyl]-3-yl)-3-methoxypyrazin-2-yl)methyl)(methyl)amino)methyl)cyclohexane-1-carboxylic acid]	103%
41.8 nM	COc1nc(-c2cccc(-c3cccc(Nc4nc(C(F)F)nc5cc(CN6CC[C@@H](O)C6)cnc45)c3C)c2Cl)cnc1CN1CCC(C(=O)O)CC1 [Example 15, (R)-1-((5-(2-chloro-3′-((2-(difluoromethyl)-7-((3-hydroxypyrrolidin-1-yl)methyl)pyrido[3,2-d]pyrimidin-4-yl)amino)-2′-methyl-[1,1′-biphenyl]-3-yl)-3-methoxypyrazin-2-yl)methyl)piperidine-4-carboxylic acid]	97%
28.1 nM	COc1nc(-c2cccc(-c3cccc(Nc4nc(C(F)F)nc5cc(CN6CC[C@@H](O)C6)cnc45)c3Cl)c2Cl)ccc1CN(C)[C@H]1CC[C@H](C(=O)O)CC1 [Example 16, (1r,4r)-4-(((6-(2,2′-dichloro-3′-((2-(difluoromethyl)-7-(((R)-3-hydroxypyrrolidin-1-yl)methyl)pyrido[3,2-d]pyrimidin-4-yl)amino)-[1,1′-biphenyl]-3-yl)-2-methoxypyridin-3-yl)methyl)(methyl)amino)cyclohexane-1-carboxylic acid]	107%
71.1 nM	COc1nc(-c2cccc(-c3cccc(Nc4nc(C(F)F)nc5cc(CN6CC(OC)C6)cnc45)c3C)c2Cl)cnc1CN(C)[C@H]1CC[C@H](C(=O)O)CC1 [Example 18, (1r,4r)-4-(((5-(2-chloro-3′-((2-(difluoromethyl)-7-((3-methoxyazetidin-1-yl)methyl)pyrido[3,2-d]pyrimidin-4-yl)amino)-2′-methyl-[1,1′-biphenyl]-3-yl)-3-methoxypyrazin-2-yl)methyl)(methyl)amino)cyclohexane-1-carboxylic acid]	68%
43.2 nM	COc1nc(-c2cccc(-c3cccc(Nc4nc(C(F)F)nc5cc(CN6CC(C)(O)C6)cnc45)c3C)c2Cl)cnc1CN(C)[C@H]1CC[C@H](C(=O)O)CC1 [Example 19, (1r,4r)-4-(((5-(2-chloro-3′-((2-(difluoromethyl)-7-((3-hydroxy-3-methylazetidin-1-yl)methyl)pyrido[3,2-d]pyrimidin-4-yl)amino)-2′-methyl-[1,1′-biphenyl]-3-yl)-3-methoxypyrazin-2-yl)methyl)(methyl)amino)cyclohexane-1-carboxylic acid]	80%
63.5 nM	COc1nc(-c2cccc(-c3cccc(Nc4nc(C(F)F)nc5cc(CN6CCCC6)cnc45)c3C)c2Cl)cnc1CN(C)[C@H]1CC[C@H](C(=O)O)CC1 [Example 20, (1r,4r)-4-(((5-(2-chloro-3′-((2-(difluoromethyl)-7-(pyrrolidin-1-ylmethyl)pyrido[3,2-d]pyrimidin-4-yl)amino)-2′-methyl-[1,1′-biphenyl]-3-yl)-3-methoxypyrazin-2-yl)methyl)(methyl)amino)cyclohexane-1-carboxylic acid]	108%
105 nM	COc1nc(-c2cccc(-c3cccc(Nc4nc(C(F)F)nc5cc(CN6CCC(O)CC6)cnc45)c3C)c2Cl)cnc1CN(C)[C@H]1CC[C@H](C(=O)O)CC1 [Example 21, (1r,4r)-4-(((5-(2-chloro-3′-((2-(difluoromethyl)-7-((4-hydroxypiperidin-1-yl)methyl)pyrido[3,2-d]pyrimidin-4-yl)amino)-2′-methyl-[1,1′-biphenyl]-3-yl)-3-methoxypyrazin-2-yl)methyl)(methyl)amino)cyclohexane-1-carboxylic acid]	65%
44.4 nM	COc1nc(-c2cccc(-c3cccc(Nc4nc(C(F)F)nc5cc(CN6CC[C@@H](CO)C6)cnc45)c3C)c2Cl)cnc1CN(C)[C@H]1CC[C@H](C(=O)O)CC1 [Example 23, (1r,4r)-4-(((5-(2-chloro-3′-((2-(difluoromethyl)-7-(((R)-3-(hydroxymethyl)pyrrolidin-1-yl)methyl)pyrido[3,2-d]pyrimidin-4-yl)amino)-2′-methyl-[1,1′-biphenyl]-3-yl)-3-methoxypyrazin-2-yl)methyl)(methyl)amino)cyclohexane-1-carboxylic acid]	74%
112 nM	COc1nc(-c2cccc(-c3cccc(Nc4nc(C(F)F)nc5cc(CN6CC[C@@H](O)C6)cnc45)c3C)c2C)cnc1CN(C)[C@H]1CC[C@H](C(=O)O)CC1 [Example 27, (1r,4r)-4-(((5-(3′-((2-(difluoromethyl)-7-(((R)-3-hydroxypyrrolidin-1-yl)methyl)pyrido[3,2-d]pyrimidin-4-yl)amino)-2,2′-dimethyl-[1,1′-biphenyl]-3-yl)-3-methoxypyrazin-2-yl)methyl)(methyl)amino)cyclohexane-1-carboxylic acid]	63%
49.5 nM	COc1nc(-c2cccc(-c3cccc(Nc4nc(C(F)F)nc5cc(CN6CC[C@H](CO)C6)cnc45)c3C)c2Cl)cnc1CN(C)[C@H]1CC[C@H](C(=O)O)CC1 [Example 28, (1r,4r)-4-(((5-(2-chloro-3′-((2-(difluoromethyl)-7-(((S)-3-(hydroxymethyl)pyrrolidin-1-yl)methyl)pyrido[3,2-d]pyrimidin-4-yl)amino)-2′-methyl-[1,1′-biphenyl]-3-yl)-3-methoxypyrazin-2-yl)methyl)(methyl)amino)cyclohexane-1-carboxylic acid]	95%
